Test results: the NIST ThermoML archive (doi:10.1016/j.tca.2016.06.022)

Assay: xn = mol fraction of the nth substance listed
Conditions: 101 kPa, Liquid, Vibrating tube method

NCCN [ethane-1,2-diamine] + O
mass density [kg/m3]
Conditions	288.15 K	298.15 K	308.15 K	323.15 K	333.15 K
x1 = 0.002	–	996.85	993.82	987.81	982.96
x1 = 0.0033	–	996.68	993.64	987.61	982.75
x1 = 0.0047	–	996.5	993.43	987.39	982.53
x1 = 0.0072	–	996.2	993.09	987	982.12
x1 = 0.009	–	995.97	992.86	986.75	981.85
x1 = 0.0123	–	995.55	992.39	986.24	981.3
x1 = 0.0222	–	994.61	991.25	984.89	979.82
x1 = 0.0436	–	993.31	989.53	982.66	977.37
x1 = 0.0609	–	992.96	988.77	981.44	975.89
x1 = 0.0827	–	993.06	988.38	980.39	974.47
x1 = 0.106	–	993.56	988.34	979.64	973.29
x1 = 0.1481	–	994.9	988.68	978.7	971.62
x1 = 0.2063	–	995.33	987.95	976.41	968.4
x1 = 0.2513	–	993.49	985.55	973.14	964.58
x1 = 0.3148	–	985.82	978.7	964.84	956.48
x1 = 0.3258	–	985.17	–	–	–
x1 = 0.341	–	984.26	975.15	961.96	952.88
x1 = 0.4038	–	974.96	965.9	952.12	942.8
x1 = 0.4489	–	967.22	958.22	944.49	935.14
x1 = 0.4928	–	959.94	950.76	936.96	927.53
x1 = 0.5468	–	950.96	942.44	928.02	918.58
x1 = 0.5907	–	943.88	934.72	920.79	911.42
x1 = 0.6361	945.77	936.87	927.73	913.79	904.37
x1 = 0.6843	938.88	929.8	920.72	906.8	897.38
x1 = 0.7386	931.34	922.53	913.33	899.31	889.84
x1 = 0.7954	924.08	914.93	905.7	891.79	882.31
x1 = 0.81	922.08	912.91	903.69	889.66	880.16
x1 = 0.8505	917.35	908.14	898.88	884.84	875.33
x1 = 0.898	912.03	902.85	893.62	879.53	870.05
x1 = 0.9282	908.76	899.58	890.26	876.1	866.59
x1 = 0.9584	905.56	896.29	886.94	872.76	863.2
x1 = 0.9678	904.59	895.3	885.94	871.75	862.17
x1 = 0.9793	903.4	894.08	884.7	870.49	860.9
x1 = 1	901.26	891.9	882.49	868.23	858.6
